{"source": "patent US20230064978A1", "about": "“CYCLIC PEPTIDE RECEPTOR LANTHIONINE SYNTHETASE C-LIKE PROTEIN (LANCL) AND USES THEREOF” (LATERAL IP PTY LTD, priority 2019, published 2023)", "system": "Dorsal root ganglion (DRG) neurons", "experiment": "Cell-binding fluorescence on cultured DRG neurons, paclitaxel neuropathy model", "type": "cell-based", "settings": "DRG neurons from paclitaxel-treated vs untreated mice; probe 5 μM (FIG. 1)", "procedure": "The cell-binding fluorescence protocol can be briefly described as follows. […] Model of chemotherapy-induced peripheral neuropathy was generated using paclitaxel in female C57/B16 mice—[…] Paclitaxel or vehicle (10 ml/kg body weight) injected intravenously (i.v.) on day 1, day 3 and day 5. Mechanical allodynia was confirmed using von Frey (VF) filaments 9 days after starting vehicle or paclitaxel treatment (left and right paws). Each of the ten C57/B16 mice (vehicle control and paclitaxel treated) were euthanized by CO2 inhalation and individually dissected.\nL5-L6 DRGs were rapidly dissected and placed in Petri dishes containing dissection medium. Meninges were removed.\nEach DRG pool was successively: • incubated in dissociation buffer (0.5 mg/ml Dispase, 2.5 mg/ml collagenase, 6 mg/ml BSA, 10 mM HEPES) for 30 min at 37° C. under gentle agitation at 800 rounds/min; • washed; • triturated in culture medium and filtered on a 40 μm filter; • re-suspended in 1 ml culture medium supplemented with nerve growth factor (NGF) 250 ng/ml.\nDissociated cells from each pool were counted, seeded on Poly-D-Lysin- and Laminin-coated μ slides at the density of 4×10^4 cells/well and incubated at 37° C. 5% CO2. The medium was changed daily for 3 days. […]", "note": "“Also recorded” adds a separate entry of the source. Bridges are numbered along the chain shown (N, C = ends). Where no end group is shown, it is not given here."}
{"substance": "LAT9991-PAL: cyclic peptide of SEQ ID NO:12 (LAT9991) conjugated to the PAL (Photo-Activated Labelling) grouping (CRSVEGSCG; disulfide 1-8 (inferred); also: PAL group on N-terminal Cys-Arg part)", "values": [{"measurement": "Binding of PAL probe to DRG neurons", "result": "can be seen in DRG neurons from mice treated with paclitaxel (neuropathic pain model), but not in control untreated mice; also recorded: only to neurons from treated and neuropathic animals"}]}
